According to patent US9714247B2, “Multiple kinase pathway inhibitors” (Mannkind Corporation, priority 2012, dated 2017):
pEC50, pIC50: −log10 of the molar value. Like-named read-outs stand apart in the source and are kept apart here. Values belong to the compound of their own block, whether it stands above or below them.

How the values were obtained:
[1] = test system: Ramos; assay: Apoptosis by flow cytometry (Annexin V / 7AAD); assay type: cell-based, human; conditions: Table 5, 6 hours
[2] = test system: PC3; assay: Apoptosis by flow cytometry (Annexin V / 7AAD); assay type: cell-based; conditions: Table 5, 6 hours
[3] = test system: DoHH2; assay: Apoptosis by flow cytometry (Annexin V / 7AAD); assay type: cell-based, human; conditions: for Percent Apoptosis DOHH2: Table 5, 6 hours
From the text: Activation of Tec family kinases including BTK, and/or Src kinase family members, regulates cell survival and cell death in normal B cells, lymphomas, and solid tumors. Apoptosis is a programmed cell death characterized by specific changes in cell morphology. […] Staurosporine was used as a positive control for apoptosis. […] Table 6 illustrates that several amino naphthyridinones induce significant apoptosis in DoHH2 cells.

[4] = biological target: T1, Src (Homo sapiens (Human), UniProt P12931); assay: biochemical
T1 sequence (P12931 whole entry, looked up): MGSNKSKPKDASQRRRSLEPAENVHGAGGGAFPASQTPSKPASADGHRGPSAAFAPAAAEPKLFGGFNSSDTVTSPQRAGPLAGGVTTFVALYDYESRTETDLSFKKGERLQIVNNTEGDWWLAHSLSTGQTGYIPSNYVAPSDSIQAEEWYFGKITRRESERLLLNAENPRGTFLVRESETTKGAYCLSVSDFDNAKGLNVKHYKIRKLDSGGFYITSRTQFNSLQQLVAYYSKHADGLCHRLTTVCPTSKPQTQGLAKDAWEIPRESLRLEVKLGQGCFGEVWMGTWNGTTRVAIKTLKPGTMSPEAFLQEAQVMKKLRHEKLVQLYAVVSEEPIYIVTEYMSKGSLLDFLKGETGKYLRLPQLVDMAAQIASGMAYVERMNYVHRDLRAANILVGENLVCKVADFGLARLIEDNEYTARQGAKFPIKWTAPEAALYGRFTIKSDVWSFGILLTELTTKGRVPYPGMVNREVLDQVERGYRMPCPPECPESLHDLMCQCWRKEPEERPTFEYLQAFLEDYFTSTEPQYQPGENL

[5] = test system: PARP cleavage in DoHH-2 cells; assay: PARP cleavage by Western blotting; assay type: cell-based, human; conditions: DoHH-2 cells, 2, 6 and 24 hr, low micromolar concentrations
Procedure: Additionally, using an exemplary amino naphthyridinones, Compound 1, […] PARP cleavage has been observed. PARP is downstream of the caspase cascade; its cleavage is an indicator or caspase-dependent apoptosis. PARP cleavage was assessed by Western blotting exponentially growing cultures of DoHH-2 cells that had been cultured overnight (18 h) in 1% FBS containing RPMI1640 media. These cells were washed, counted and plated with and without Compound 1 for 2, 6, and 24 hr. Cells were centrifuged and cell pellets were lysed using RIPA buffer from CST. Protein lysates were quantified using the BCA protein assay kit from Pierce and used in a standard Western blotting procedure. Anti-PARP antibody was obtained from CST and used as per the manufacturer's protocol. […] Thus amino naphthyridinones can be used to induce apoptosis in tumor cells.

[6] = test system: phosphorylation of SFKs in Ramos cells; assay: SFK phosphorylation (Tyr 416) by Western blotting; assay type: cell-based, human; conditions: pretreated 2 hours
Procedure: Ramos cell lysates from stimulated and unstimulated cells were analyzed for the levels of phosphorylated SRC family members. As described in Example 82 (above), cells were pretreated for 2 hours with an amino naphthyridinones and then stimulated with anti-IgM antibody and H2O2, protein lysates were prepared, quantified and used for Western blotting. A commercially available antibody that detects Src phosphorylated at Tyr 416 (Cell Signalling) and may cross-react with other Src family members such as Lyn, Fyn, Lck, Yes and Hck when phosphorylated at equivalent sites was used for Western blot analysis. The molecular weights of SFK family members are quite similar (in the 55-60 kDa range) and different family members cannot be resolved by the conditions used for the Western blot. […] The procedure can be similarly adapted for flow cytometric analysis as with the PLC-γ2 assay in Example 82. Ramos cells were incubated with Compound 1 for 2 hrs in RPMI media with 5% FBS prior to stimulation stimulated with H2O2/anti-IgM/F(Ab) for 10 minutes. Cells were evaluated by FACS analysis using anti-pSRC antibody and FITC-conjugated goat anti-rabbit secondary antibody following overnight storage at 4° C. in BD perm/wash buffer.

[7] = test system: PLCγ2 phosphorylation in Ramos cells; assay: PLCγ2 phosphorylation by Western blotting; assay type: cell-based, human; conditions: anti-IgM/H2O2 stimulation, Tyr1217
Procedure: Ramos cells were cultured in RPMI 1640 media with 10% FBS and were starved overnight (18 h) in 1% FBS containing media and on the next day pretreated with inhibitor for 2 h before stimulation. Cells were stimulated to induce BTK network dependent signal transduction pathways using mouse anti-human IgM (final concentration 10 ug/ml; Invitrogen) antibodies and 3.3 mM H2O2 mixture for 2 minutes followed by F(Ab) fragment that cross-linked the anti-IgM antibody (final concentration 10 ug/ml), and 3.3 mM H2O2 for 8 minutes. Cell lysates were prepared in lysis buffer containing protease and phosphatase inhibitors, quantified using the BCA protein assay kit (Pierce) and used for Western blotting. Antibodies specifically targeted to the molecules of interest, PLCγ2 phosphorylated at Tyr1217 and total PLCγ2, (Cell Signaling Technology) were used in a standard Western blotting procedure.
Phosphorylation of PLCγ2 at Tyr1217 along with Tyr753, Tyr759 and Tyr1197 is correlated with increased PLCγ2 activity. The readout for BTK network signaling was inhibition of phosphorylation of PLCγ2 induced by the anti-IgM treatment.

[8] = test system: PLC-γ2 phosphorylation in DoHH-2; assay: PLCγ2 phosphorylation by flow cytometry; assay type: cell-based, human; conditions: DoHH-2, increasing concentrations (data not shown)
Procedure: PLCγ2 phosphorylation was also assessed by flow cytometry. Cells were similarly stimulated and following stimulation, Cytofix buffer (Becton Dickinson) was added, cells were centrifuged and the cell pellets incubated on ice with Phosflow perm buffer III (Becton Dickinson). These cell pellets were washed with Perm/Wash buffer (Becton Dickinson); resuspended and labeled for flow cytometry analysis in a staining mixture containing Perm/Wash buffer and PE-labeled anti-phosphoPCLγa2 (Tyr1217) antibody (Becton Dickinson). The samples were washed with Perm/Wash buffer and analyzed on a FACS Calibur flow cytometer using CellQuest Pro software. As mentioned for the Western blot experiments, phosphorylation of PLCγ2 at Tyr1217 along with Tyr753, Tyr759 and Tyr1197 is correlated with increased PLCγ2 activity. The readout for BTK network signaling was inhibition of phosphorylation of PLCγ2. Cells were gated to exclude dead or dying cells. Fluorescence signals from the antibody staining were plotted in logarithmic units and data was analyzed using Cellquest Pro software. […] An ED50 was calculated based on the geometric mean of fluorescence intensity observed for treatment for four different concentrations of the inhibitors (see Table 7 and FIG. 6). […] Thus treatment with amino naphthyridinones inhibits PLCγ2 phosphorylation consistent with inhibition of BTK and/or LYN activity.

[9] = test system: PLCγ2 phosphorylation in Ramos cells; assay: PLCγ2 phosphorylation by flow cytometry; assay type: cell-based, human
Summary of the method: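 Ramos cells starved 18 h in 1% FBS, pretreated with inhibitor 2 h, then stimulated with anti-IgM (10 ug/ml final) plus 3.3 mM H2O2 for 2 min, then cross-linking F(ab) (10 ug/ml) plus H2O2 for 8 min. Fixed, permeabilized cells stained with PE anti-phospho-PLCγ2 (Tyr1217 or Tyr759), dead cells gated out; ED50 from geometric mean fluorescence over four inhibitor concentrations.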

[10] = biological target: T1, Src; conditions: read-out: Src IC50

Compound: CCN(CC)CCOc1ccc(Nc2cc3c(cn2)cc(-c2ccccc2)c(=O)n3CC)nc1 [Compound 1, 7-[5-(2-Diethylamino-ethoxy)-pyridin-2-ylamino]-1-ethyl-3-phenyl-1H-[1, 6]naphthyridin-2-one]
Percent Apoptosis Ramos ([1]; 1 uM): 35.71% | Percent Apoptosis Ramos ([1]; 2 uM): 38.94% | Percent Apoptosis Ramos ([1]; 5 uM): 39.09% | Percent Apoptosis Ramos ([1]; 10 uM): 51.63% | Percent Apoptosis PC3 ([2]; 1 uM): 7.86% | Percent Apoptosis PC3 ([2]; 2 uM): 6.5% | Percent Apoptosis PC3 ([2]; 5 uM): 11.74% | Percent Apoptosis PC3 ([2]; 10 uM): 6.35% | Percent Apoptosis DOHH2 ([3]; 1 uM): 4.43% | Percent Apoptosis DOHH2 ([3]; 2 uM): 29.84% | Percent Apoptosis DOHH2 ([3]; 5 uM): 21.76% | Percent Apoptosis DOHH2 ([3]; 10 uM): 37.52% | Percent Apoptosis at 2 uM ([3]; Table 6, DOHH2, 2 uM): 26.2% | Percent Apoptosis at 5 uM ([3]; Table 6, DOHH2, 5 uM): 32.58% | pIC50 [4]: 6.00 to 7.00 | PARP cleavage [5]: induced the apoptotic pathway as shown by PARP cleavage | Inhibition of phosphorylation of SFKs (Western blot) [6]: dose-dependent decrease of phosphorylation of SFKs | Inhibition of PLCγ2 phosphorylation (Western blot) [7]: dose dependent decrease in PLCγ2 phosphorylation | Inhibition of PLC-γ2 phosphorylation (flow cytometry) [8]: dose dependent decrease in PLC-γ2 phosphorylation | inhibition at 0.3 µM ([9]; Homo sapiens, 0.3 uM, flow cytometry, anti-phospho PLCγ2 (Tyr759), read-out: pPLCγ % inhibition): 63% | pEC50 ([9]; Homo sapiens, flow cytometry, anti-phospho PLCγ2 (Tyr1217), four concentrations, read-out: Inhibition of phosphorylation of PLC-γ2 EC50): 6.42 | Inhibition of PLC-γ2 phosphorylation (flow cytometry) ([9]; increasing concentrations): dose dependent decrease in PLC-γ2 phosphorylation

pIC50 [10]: < 5.30
Compound: CCn1c(=O)c(-c2ccccc2)cc2cnc(Nc3ncc(CCN(C)C)s3)cc21 [Compound 2, 7-[5-(2-Dimethylamino-ethyl)-thiazol-2-ylamino]-1-ethyl-3-phenyl-1H-[1,6]naphthyridin-2-one]
